US10793509B2, “Compounds useful in the treatment of neoplastic diseases” (UNIVERSITÄT ZU KÖLN, priority 2013, dated 2020)

Legend:
U2932 = assay: CellTiter-Glo ATP assay, U2932 cell line; assay type: cell-based; conditions: 24 h, 0.01-1000 μM
Experimental: (§1) Several cell lines (n=5) were treated with different concentrations of p-NO-ASA, B9, B12 and B13 ranging between 0.01 μM and 1000 μM for 24 hours followed by addition of luminogenic CellTiter-Glo®-reagent. […] For each cell line the order of used compound in the bar chart is from left to right as following: p-NO-ASA, B9, B12, B13.
(§2) Treatment success in CLL may depend on cytogenetic and molecular parameters as for instance del13q or TP53 gene disruption. Therefore, the NO-ASA derivatives were examined on (chronic) B cell lymphoma cell lines with different geno- and phenotypes (JVM3, EHEB, U2932, MEC-1, GRANTA-519). The cells were treated with concentrations between 0.01 and 1000 μM for 24 h followed by the addition of luminogenic CellTiter-Glo® reagent.

[1] = test system: phosphorylated NFkappaBp65 protein; assay: Western blot of NFkappaB phosphorylation status in CLL cells; assay type: cell-based, human; conditions: 3 h
Experimental: CLL cells were treated with B1, B9, B12 and B13 (0.1 μM, 1 μM, 10 μM) for 3 h. Untreated and DMSO (1%) treated cells served as control. GAPDH=loading control.
The BCR signalling pathway plays an important pathogenic role in CLL and lymphomas leading often to a constitutive active NFkappaB (in this state NFkappaB is phosphorylated). Therefore the influence of the derivatives on the phosphorylation status of NFkappaB was analyzed by Western Blot. CLL cells were treated with 0.1 μM, 1 μM or 10 μM of each derivate, respectively, for 3 h. CLL cells were treated with B1, B9, B12 and B13 (0.1 μM, 1 μM, 10 μM) for 3 h. Untreated and DMSO (1%) treated cells served as control. GAPDH=loading control.

GRANTA-519 = assay: CellTiter-Glo ATP assay, GRANTA-519 cell line; assay type: cell-based; conditions: 24 h
Experimental: as §1, §2

JVM-3 = assay: CellTiter-Glo ATP assay, JVM-3 cell line; assay type: cell-based, human; conditions: 24 h, 0.01-1000 μM
Experimental: as §1, §2

EHEB = assay: CellTiter-Glo ATP assay, EHEB cell line; assay type: cell-based; conditions: 24 h, 0.01-1000 μM
Experimental: as §1, §2

[2] = test system: SW480, MelJuso, HCC44, SH2 and COLO704 cell lines; assay type: cell-based; conditions: 24 h, 0.01-100 μM
Experimental: In the following experiment the possible therapeutic window for NO-ASA derivatives was investigated. […] The melanoma cell line MelJuso, the colon carcinoma cell line SW480, the small cell lung cancer cell line HCC44, the ovarian adenocarcinoma cell line COLO704 and the acute myeloid leukemia cell line SH2 were treated with concentrations of p-NO-ASA and B9, B12 and B13 in a range between 0.01 μM and 100 μM for 24 h, followed by addition of luminogenic CellTiter-Glo® reagent.

Primary CLL cells = assay: AnnexinV/PI assay on primary CLL cells; assay type: cell-based, human
Experimental: (§3) PBMCs or CLL cells (5*10^6 cells/ml) were incubated for 24 h with different compounds at concentrations from 0.01 to 100 μM. Cell survival was normalized to DMSO control [vehicle]. See Example 1.
(§4) Primary CLL or peripheral blood mononuclear cells of healthy donors (5*10^6/ml) were incubated for 24 h with different compounds according to the invention and NO-ASA as a control. The compounds were added in different concentrations, in particular in concentrations from 0.01-100 μM. Cell survival was assessed by AnnexinV/PI assay (Kit commercially available, e.g. by Biotium Inc, USA; or Phoenix Flow Systems, US), the results were normalized to DMSO control [vehicle] and dose response curves were calculated using a non-linear regression model.

MEC-1 = assay: CellTiter-Glo ATP assay, MEC-1 cell line; assay type: cell-based; conditions: 24 h
Experimental: as §1, §2

[3] = test system: peripheral blood mononuclear cells (PBMCs) of healthy donors; assay: AnnexinV/PI assay on PBMCs of healthy donors; assay type: cell-based; conditions: Homo sapiens, PBMC; 24 h incubation, 0.01-100 μM, 5*10^6 cells/ml, normalized to DMSO control; read-out: AnnexinV/PI assay EC50 PBMCs
Experimental: as §3, §4

caspases 3 and 7 = assay: caspase-3/7 assay in CLL cells; assay type: cell-based; conditions: Homo sapiens, CLL cell, 6 h, 0.01-20 μM, luminogenic caspase-3/7-substrate, read-out: activation of caspases 3 and 7, EC50
Description: FIG. 8 depicts the involvement of caspase-mediated apoptosis in CLL cells upon treatment with p-NO-ASA, B9, B12 and B13. Representative blots of 3 independent experiments are shown. Untreated and DMSO (1%) treated cells served as control. beta-actin=loading control (FIG. 8A). para-NO-ASA and B9 induced a concentration-dependent increase in caspase-3/7-activation (FIG. 8B).
To determine whether the toxicity on CLL cells is due to caspase-mediated apoptosis, the cleavage of PARP (Poly(ADP-ribose)-Polymerase 1) and XIAP (X-linked inhibitor of apoptosis) was analyzed by immunoblot. CLL cells were cultured alone, with 1% DMSO or with EC50 of p-NO-ASA, meta-NO-ASA, B9, B12 and B13 for 24 h followed by protein lysation and western blot analysis using antibodies to detect prognostic apoptotic proteins (XIAP, PARP). […] All compounds tested induced PARP and XIAP cleavage (FIG. 8A). Further a caspase-3/7 assay was carried out. CLL cells were incubated with para-NO-ASA and B9 in different concentrations ranging from 0.01 μM to 20 μM for 6 h followed by addition of luminogenic caspase-3/7-substrate. This indicates the reduction of the survival of CLL cells upon treatment with p-NO-ASA and B9 due to the induction of caspase-mediated apoptosis.

[4] = 0.01-1000 μM, compared to B9, B12, B13

Structure (SMILES): CC(=O)Oc1ccccc1C(=O)Oc1ccc(CO[N+](=O)[O-])cc1 [B1, 4-(nitrooxy)methyl phenyl-2-acetoxy benzoate, reference compound]
- ATP content in U2932 (U2932): reduced ATP content
- reduction of NFkappaB activity (phosphorylated NFkappaBp65) ([1]; CLL cells, 0.1, 1, 10 μM): concentration dependent reduction
- concentration inducing the reduction of NFkappaB p65 protein ([1]; CLL cells): twofold concentration
- effectiveness in GRANTA-519 (ATP content) (GRANTA-519; [4]): significantly less effective
- EC50 (GRANTA-519; Homo sapiens, Granta-519, CellTiter-Glo): 22.2 µM
- ATP content in JVM-3 (JVM-3): reduced ATP content
- ATP content in EHEB (EHEB): reduced ATP content
- ATP content in SW480, MelJuso, HCC44, SH2 and COLO704 cell lines [2]: reduced ATP content
- selectivity for CLL cells compared to PBMCs (Primary CLL cells; FIG. 3, sensitivity of CLL cells vs PBMCs, 24 h): selective for CLL cells
- EC50 (Primary CLL cells; Homo sapiens, CLL cell, 24 h incubation, 0.01-100 μM, 5*10^6 cells/ml, normalized to DMSO control, read-out: AnnexinV/PI assay EC50 Primary CLL): 6.7 µM
- effectiveness in MEC-1 (ATP content) (MEC-1; [4]): significantly less effective
- EC50 (MEC-1; Homo sapiens, MEC1, CellTiter-Glo): 53.4 µM
- EC50 [3]: 47.2 µM
- EC50 (caspases 3 and 7): 1.84 µM
